Measurements: patent US7238668B1, “Inhibition of lymphocyte adherence with CS-1-peptides and fragments thereof” (Fred Hutchinson Cancer Research Center, priority 1989, dated 2007)
Ends that are not written are not given here.

Tests used:
[1] = system: Jurkat cells; experiment: Jurkat cell adhesion to surfaces coated with peptide-rsa conjugates; format: cell-based, human; settings: Jurkat; FIG. 12; 5 ug/ml peptide; 30 min
Method: ^51Cr-labeled Jurkat cells ([…]) were incubated on surfaces coated with varying concentrations of peptide-rsa conjugates starting at 50 ug/ml (w/v) fragment or peptide (based on peptide not peptide-conjugate weight). […] (No adhesion=no measurable adhesion above negative controls.)
(§1) Adhesion of various hematopoetic cell lines to CS-1 (open bars; FIG. 12) or LDV minimal peptide-coated surfaces (cross-hatched bars; FIG. 12) was tested as follows: Jurkat (T lymphoblastoid), A375 (melanoma), U937 (monocytic), Ramos (B lymphoblastoid), and ST-1 (EBV transformed B lymphoblastoid) cells were allowed to adhere to CS-1-rsa or LDVPST-rsa (5 ug/ml peptide) coated surfaces for 30 min at 37° C. At the end of this time the non-adherent cells were washed off and the adherent cells were solubilized in NaOH/SDS and quantitated in a gamma counter. The results are expressed as bound counts per minute.

[2] = system: A375 melanoma cells; experiment: A375 melanoma cell adhesion to peptide-rsa coated surfaces; format: cell-based, human; settings: FIG. 12, 5 ug/ml peptide, 30 min
Method: as §1

## LDVPST-RSA: LDVPST conjugated to rabbit serum albumin (also: conjugated to rabbit serum albumin, site not given here)
[1]
  Cell adhesion to conjugate-coated surfaces: only slightly
[2]
  Cell adhesion to conjugate-coated surfaces: adhered
